Laboratory results taken from ChEMBL document CHEMBL3885881, “DrugMatrix”.

Species on record: Rattus norvegicus
Experiment: DrugMatrix - Regimen: Daily Repeat
Format: toxicity, organism-based, Sprague-Dawley
Set-up: regimen Daily Repeat, gender Male, age 6-8 weeks
Details: in vivo, po, 0 mg/kg, route oral GAVAGE, dose level Control, […]; for ABSOLUTE BASOPHIL / ABSOLUTE EOSINOPHIL / ABSOLUTE LYMPHOCYTE / ABSOLUTE MONOCYTE / ABSOLUTE SEGMENTED NEUTROPHIL / BASOPHIL / EOSINOPHIL / ERYTHROCYTE COUNT / HEMATOCRIT / HEMOGLOBIN / LEUKOCYTE COUNT / LYMPHOCYTE / MEAN CORPUSCULAR HEMOGLOBIN / MEAN CORPUSCULAR HEMOGLOBIN CONCENTRATION / MEAN CORPUSCULAR VOLUME / MONOCYTE / NEUTROPHIL / NUCLEATED RED BLOOD CELLS / PLATELET COUNT: tissue Blood; for ALANINE AMINOTRANSFERASE / ALBUMIN / ALKALINE PHOSPHATASE / ASPARTATE AMINOTRANSFERASE / BLOOD UREA NITROGEN / CARBON DIOXIDE / CHLORIDE / CHOLESTEROL / CREATINE PHOSPHOKINASE / CREATININE / GLUCOSE / LACTATE DEHYDROGENASE / LIPASE / PHOSPHORUS / POTASSIUM / SODIUM / TOTAL BILIRUBIN / TOTAL PROTEIN / URIC ACID: tissue Plasma

CC(C)(Oc1ccc(CCNC(=O)c2ccc(Cl)cc2)cc1)C(=O)O [BEZAFIBRATE]
ABSOLUTE BASOPHIL (72 h, time 3 day): 0 CELLS/uL | ABSOLUTE EOSINOPHIL (72 h, time 3 day): 37.33 CELLS/uL | ABSOLUTE LYMPHOCYTE (72 h, time 3 day): 6295.33 CELLS/uL | ABSOLUTE MONOCYTE (72 h, time 3 day): 122.17 CELLS/uL | ABSOLUTE SEGMENTED NEUTROPHIL (72 h, time 3 day): 861.83 CELLS/uL | BASOPHIL (72 h, time 3 day): 0% | EOSINOPHIL (72 h, time 3 day): 0.5% | ERYTHROCYTE COUNT (72 h, time 3 day): 5.2 x10E6/uL | HEMATOCRIT (72 h, time 3 day): 32.58% | HEMOGLOBIN (72 h, time 3 day): 12.95 G/DL | LEUKOCYTE COUNT (72 h, time 3 day): 7.32 x10E3/uL | LYMPHOCYTE (72 h, time 3 day): 86% | MEAN CORPUSCULAR HEMOGLOBIN (72 h, time 3 day): 24.93 pg | MEAN CORPUSCULAR HEMOGLOBIN CONCENTRATION (72 h, time 3 day): 39.77 G/DL | MEAN CORPUSCULAR VOLUME (72 h, time 3 day): 62.65 fL | MONOCYTE (72 h, time 3 day): 1.67% | NEUTROPHIL (72 h, time 3 day): 11.83% | NUCLEATED RED BLOOD CELLS (72 h, time 3 day): 0 /100WBC | PLATELET COUNT (72 h, time 3 day): 1029 x10E3/uL | ALANINE AMINOTRANSFERASE (72 h, time 3 day): 63.67 u/L | ALBUMIN (72 h, time 3 day): 4.12 G/DL | ALKALINE PHOSPHATASE (72 h, time 3 day): 329.83 u/L | ASPARTATE AMINOTRANSFERASE (72 h, time 3 day): 77.67 u/L | BLOOD UREA NITROGEN (72 h, time 3 day): 18 mg/dL | CARBON DIOXIDE (72 h, time 3 day): 29.67 mmol/L | CHLORIDE (72 h, time 3 day): 102.67 MEQ/L | CHOLESTEROL (72 h, time 3 day): 64.5 mg/dL | CREATINE PHOSPHOKINASE (72 h, time 3 day): 178.67 u/L | CREATININE (72 h, time 3 day): 0.18 mg/dL | GLUCOSE (72 h, time 3 day): 163.83 mg/dL | LACTATE DEHYDROGENASE (72 h, time 3 day): 75.83 u/L | LIPASE (72 h, time 3 day): 10 u/L | PHOSPHORUS (72 h, time 3 day): 8.28 mg/dL | POTASSIUM (72 h, time 3 day): 4.79 MEQ/L | SODIUM (72 h, time 3 day): 142.22 MEQ/L | TOTAL BILIRUBIN (72 h, time 3 day): 0.22 mg/dL | TOTAL PROTEIN (72 h, time 3 day): 5.78 G/DL | URIC ACID (72 h, time 3 day): 0.87 mg/dL | BASOPHIL (120 h, time 5 day): 0.32% | EOSINOPHIL (120 h, time 5 day): 0.58% | ERYTHROCYTE COUNT (120 h, time 5 day): 7.26 x10E6/uL | HEMATOCRIT (120 h, time 5 day): 46.94% | HEMOGLOBIN (120 h, time 5 day): 14.9 G/DL | LEUKOCYTE COUNT (120 h, time 5 day): 8.69 x10E3/uL | LYMPHOCYTE (120 h, time 5 day): 81.52% | MEAN CORPUSCULAR HEMOGLOBIN (120 h, time 5 day): 20.58 pg | MEAN CORPUSCULAR HEMOGLOBIN CONCENTRATION (120 h, time 5 day): 31.8 G/DL | MEAN CORPUSCULAR VOLUME (120 h, time 5 day): 64.68 fL | MONOCYTE (120 h, time 5 day): 2.16% | NEUTROPHIL (120 h, time 5 day): 13.88% | PLATELET COUNT (120 h, time 5 day): 1531.2 x10E3/uL | ALANINE AMINOTRANSFERASE (120 h, time 5 day): 33.2 u/L | ALBUMIN (120 h, time 5 day): 3.74 G/DL | ALKALINE PHOSPHATASE (120 h, time 5 day): 318 u/L | ASPARTATE AMINOTRANSFERASE (120 h, time 5 day): 78.6 u/L | BLOOD UREA NITROGEN (120 h, time 5 day): 6 mg/dL | CHLORIDE (120 h, time 5 day): 108.4 MEQ/L | CHOLESTEROL (120 h, time 5 day): 63 mg/dL | CREATINE PHOSPHOKINASE (120 h, time 5 day): 251 u/L | CREATININE (120 h, time 5 day): 0.18 mg/dL | GLUCOSE (120 h, time 5 day): 125.6 mg/dL | PHOSPHORUS (120 h, time 5 day): 12.06 mg/dL | POTASSIUM (120 h, time 5 day): 5.92 MEQ/L | SODIUM (120 h, time 5 day): 146.8 MEQ/L | TOTAL BILIRUBIN (120 h, time 5 day): 0.16 mg/dL | TOTAL PROTEIN (120 h, time 5 day): 6.06 G/DL | ABSOLUTE BASOPHIL (time 7 day): 0 CELLS/uL | ABSOLUTE EOSINOPHIL (time 7 day): 19 CELLS/uL | ABSOLUTE LYMPHOCYTE (time 7 day): 7803.5 CELLS/uL | ABSOLUTE MONOCYTE (time 7 day): 117.83 CELLS/uL | ABSOLUTE SEGMENTED NEUTROPHIL (time 7 day): 1093 CELLS/uL | BASOPHIL (time 7 day): 0% | EOSINOPHIL (time 7 day): 0.17% | ERYTHROCYTE COUNT (time 7 day): 5.84 x10E6/uL | HEMATOCRIT (time 7 day): 35.75% | HEMOGLOBIN (time 7 day): 13.87 G/DL | LEUKOCYTE COUNT (time 7 day): 9.03 x10E3/uL | LYMPHOCYTE (time 7 day): 87.17% | MEAN CORPUSCULAR HEMOGLOBIN (time 7 day): 23.78 pg | MEAN CORPUSCULAR HEMOGLOBIN CONCENTRATION (time 7 day): 38.8 G/DL | MEAN CORPUSCULAR VOLUME (time 7 day): 61.25 fL | MONOCYTE (time 7 day): 1.17% | NEUTROPHIL (time 7 day): 11.5% | NUCLEATED RED BLOOD CELLS (time 7 day): 0 /100WBC | PLATELET COUNT (time 7 day): 1098.67 x10E3/uL | BASOPHIL (time 28 day): 0.42% | EOSINOPHIL (time 28 day): 0.58% | ERYTHROCYTE COUNT (time 28 day): 8.06 x10E6/uL | HEMATOCRIT (time 28 day): 48.44% | HEMOGLOBIN (time 28 day): 16.34 G/DL | LEUKOCYTE COUNT (time 28 day): 13.04 x10E3/uL | LYMPHOCYTE (time 28 day): 85.12% | MEAN CORPUSCULAR HEMOGLOBIN (time 28 day): 20.26 pg | MEAN CORPUSCULAR HEMOGLOBIN CONCENTRATION (time 28 day): 33.74 G/DL | MEAN CORPUSCULAR VOLUME (time 28 day): 60.1 fL | MONOCYTE (time 28 day): 1.44% | NEUTROPHIL (time 28 day): 11.28% | PLATELET COUNT (time 28 day): 1226 x10E3/uL | ALANINE AMINOTRANSFERASE (time 7 day): 66 u/L | ALBUMIN (time 7 day): 4.3 G/DL | ALKALINE PHOSPHATASE (time 7 day): 291.83 u/L | ASPARTATE AMINOTRANSFERASE (time 7 day): 80.5 u/L | BLOOD UREA NITROGEN (time 7 day): 15.67 mg/dL | CARBON DIOXIDE (time 7 day): 30 mmol/L | CHLORIDE (time 7 day): 101.67 MEQ/L | CHOLESTEROL (time 7 day): 69.67 mg/dL | CREATINE PHOSPHOKINASE (time 7 day): 363.33 u/L | CREATININE (time 7 day): 0.25 mg/dL | GLUCOSE (time 7 day): 146.5 mg/dL | LACTATE DEHYDROGENASE (time 7 day): 219.67 u/L | LIPASE (time 7 day): 11.33 u/L | PHOSPHORUS (time 7 day): 10.08 mg/dL | POTASSIUM (time 7 day): 5.22 MEQ/L | SODIUM (time 7 day): 144.67 MEQ/L | TOTAL BILIRUBIN (time 7 day): 0.12 mg/dL | TOTAL PROTEIN (time 7 day): 6.33 G/DL | URIC ACID (time 7 day): 0.75 mg/dL | ALANINE AMINOTRANSFERASE (time 28 day): 28.6 u/L | ALBUMIN (time 28 day): 3.94 G/DL | ALKALINE PHOSPHATASE (time 28 day): 254.6 u/L | ASPARTATE AMINOTRANSFERASE (time 28 day): 67.8 u/L | BLOOD UREA NITROGEN (time 28 day): 10.4 mg/dL | CHLORIDE (time 28 day): 104.6 MEQ/L | CHOLESTEROL (time 28 day): 57.6 mg/dL | CREATINE PHOSPHOKINASE (time 28 day): 224.8 u/L | CREATININE (time 28 day): 0.4 mg/dL | GLUCOSE (time 28 day): 140.6 mg/dL | PHOSPHORUS (time 28 day): 10.66 mg/dL | POTASSIUM (time 28 day): 6.58 MEQ/L | SODIUM (time 28 day): 148.6 MEQ/L | TOTAL BILIRUBIN (time 28 day): 0.24 mg/dL | TOTAL PROTEIN (time 28 day): 6.64 G/DL
